Data as given in ChEMBL document CHEMBL4257573, “Synthesis, modification, and cytotoxic evaluation of 2,3-secotriterpenic β-ketoesters” (Bioorg Med Chem Lett, 2018).
The source made the active and inactive calls. The calls are words filed in the database; no cut-off is given here.

Assays:
HCT-116 [1] = test: Antimigratory activity in human HCT116 cells at 2 uM after 96 hrs by wound healing assay; assay type: functional, cell-based
[2] = Cytotoxicity against human MS cells assessed as reduction in cell viability after 72 hrs by MTT assay; assay type: functional, cell-based
[3] = Selectivity index, ratio of IC50 for HEK293 cells to IC50 for human MS cells; assay type: toxicity; conditions: HEK293 cells versus MS cells, read-out: Ratio IC50
HEK293 = test: Cytotoxicity against HEK293 cells assessed as reduction in cell viability after 72 hrs by MTT assay; assay type: cell-based; conditions: Homo sapiens, HEK293, 72 h
HCT-116 [4] = test: Cell cycle arrest in human HCT116 cells assessed as accumulation at S phase at 2 uM after 18 hrs by DAPI staining-based flow cytometric analysis (RVB = 25.49%); assay type: functional
HCT-116 [5] = test: Induction of apoptosis in human HCT116 cells assessed as early apoptotic cells at 2 uM after 18 hrs by Annexin V/7-AAD staining based flow cytometric analysis (reference value: 5.84%); assay type: functional
HCT-116 [6] = test: Induction of apoptosis in human HCT116 cells assessed as late apoptotic cells at 2 uM after 18 hrs by Annexin V/7-AAD staining based flow cytometric analysis (reference value: 2.12%); assay type: functional
HCT-116 [7] = test: Cytotoxicity against human HCT116 cells assessed as reduction in cell viability at 2 uM by MTT assay; assay type: functional, cell-based; conditions: TDE = time-dependent effect
HCT-116 [8] = test: Cell cycle arrest in human HCT116 cells assessed as accumulation at sub-G0 phase at 2 uM after 18 hrs by DAPI staining-based flow cytometric analysis (RVB = 8.55%); assay type: functional
HCT-116 [9] = test: Cell cycle arrest in human HCT116 cells assessed as accumulation at G2/M phase at 2 uM after 18 hrs by DAPI staining-based flow cytometric analysis (RVB = 17.25%); assay type: functional
HCT-116 [10] = test: Cytotoxicity against human HCT116 cells assessed as reduction in cell viability after 72 hrs by MTT assay; assay type: functional, cell-based; conditions: for IC50: HCT-116, 72 h
HCT-116 [11] = test: Induction of apoptosis in human HCT116 cells assessed as necrotic cells at 2 uM after 18 hrs by Annexin V/7-AAD staining based flow cytometric analysis (reference value: 0.62%); assay type: functional
HCT-116 [12] = test: Cell cycle arrest in human HCT116 cells assessed as accumulation at G0/G1 phase at 2 uM after 18 hrs by DAPI staining-based flow cytometric analysis (RVB = 47.72%); assay type: functional
MCF7 = test: Cytotoxicity against human MCF7 cells assessed as reduction in cell viability after 72 hrs by MTT assay; assay type: functional, cell-based; conditions: MCF7, 72 h
RD = test: Cytotoxicity against human RD cells assessed as reduction in cell viability after 72 hrs by MTT assay; assay type: functional, cell-based
HCT-116 [13] = test: Induction of apoptosis in human HCT116 cells assessed as viable cells at 2 uM after 18 hrs by Annexin V/7-AAD staining based flow cytometric analysis (reference value: 91.42%); assay type: functional; conditions: HCT-116, 18 h, read-out: Activity
A549 = test: Cytotoxicity against human A549 cells assessed as reduction in cell viability after 72 hrs by MTT assay; assay type: functional, cell-based; conditions: A549, 72 h
[14] = Selectivity index, ratio of IC50 for HEK293 cells to IC50 for human MCF7 cells; assay type: toxicity; conditions: HEK293 cells versus MCF7 cells, read-out: Ratio IC50
[15] = Selectivity index, ratio of IC50 for HEK293 cells to IC50 for human Hep2 cells; assay type: toxicity; conditions: HEK293 cells versus Hep2 cells, read-out: Ratio IC50
HEp-2 = test: Cytotoxicity against human Hep2 cells assessed as reduction in cell viability after 72 hrs by MTT assay; assay type: functional, cell-based; conditions: HEp-2, 72 h
HCT-116 [16] = test: Induction of apoptosis in human HCT116 cells assessed as increase in number of cells with condense nucleus at 3 uM after 18 hrs by Hoechst 33258 /rhodamine 123 staining based fluorescence inverted microscopic analysis; assay type: functional, cell-based
HCT-116 [17] = test: Induction of mitochondrial membrane depolarization in human HCT116 cells at 3 uM after 18 hrs by Hoechst 33258 /rhodamine 123 staining based fluorescence inverted microscopic analysis; assay type: functional, cell-based
HCT-116 [18] = test: Cell cycle arrest in human HCT116 cells assessed as accumulation at sub-G0 phase at 3 uM after 18 hrs by DAPI staining-based flow cytometric analysis (RVB = 8.55%); assay type: functional
HCT-116 [19] = test: Cell cycle arrest in human HCT116 cells assessed as decrease in accumulation at G0/G1 phase after 18 hrs by DAPI staining-based flow cytometric analysis; assay type: functional
HCT-116 [20] = test: Induction of apoptosis in human HCT116 cells assessed as necrotic cells at 6 uM after 18 hrs by Annexin V/7-AAD staining based flow cytometric analysis (reference value: 0.62%); assay type: functional
HCT-116 [21] = test: Induction of apoptosis in human HCT116 cells assessed as necrotic cells at 3 uM after 18 hrs by Annexin V/7-AAD staining based flow cytometric analysis (reference value: 0.62%); assay type: functional
HCT-116 [22] = test: Cell cycle arrest in human HCT116 cells assessed as accumulation at G2/M phase at 6 uM after 18 hrs by DAPI staining-based flow cytometric analysis (RVB = 17.25%); assay type: functional
HCT-116 [23] = test: Induction of apoptosis in human HCT116 cells assessed as late apoptotic cells at 6 uM after 18 hrs by Annexin V/7-AAD staining based flow cytometric analysis (reference value: 2.12%); assay type: functional
HCT-116 [24] = test: Induction of apoptosis in human HCT116 cells assessed as viable cells at 3 uM after 18 hrs by Annexin V/7-AAD staining based flow cytometric analysis (reference value: 91.42%); assay type: functional; conditions: HCT-116, 18 h, read-out: Activity
HCT-116 [25] = test: Induction of apoptosis in human HCT116 cells assessed as decrease in viable cells after 18 hrs by Annexin V/7-AAD staining based flow cytometric analysis; assay type: functional, cell-based
HCT-116 [26] = test: Induction of apoptosis in human HCT116 cells assessed as late apoptotic cells at 3 uM after 18 hrs by Annexin V/7-AAD staining based flow cytometric analysis (reference value: 2.12%); assay type: functional
HCT-116 [27] = test: Induction of apoptosis in human HCT116 cells assessed as early apoptotic cells at 3 uM after 18 hrs by Annexin V/7-AAD staining based flow cytometric analysis (reference value: 5.84%); assay type: functional
HCT-116 [28] = test: Cell cycle arrest in human HCT116 cells assessed as accumulation at sub-G0 phase at 6 uM after 18 hrs by DAPI staining-based flow cytometric analysis (RVB = 8.55%); assay type: functional
HCT-116 [29] = test: Induction of apoptosis in human HCT116 cells assessed as increase in early apoptotic cells after 18 hrs by Annexin V/7-AAD staining based flow cytometric analysis; assay type: functional, cell-based
HCT-116 [30] = test: Cell cycle arrest in human HCT116 cells assessed as accumulation at G0/G1 phase at 3 uM after 18 hrs by DAPI staining-based flow cytometric analysis (RVB = 47.72%); assay type: functional
HCT-116 [31] = test: Induction of apoptosis in human HCT116 cells assessed as early apoptotic cells at 6 uM after 18 hrs by Annexin V/7-AAD staining based flow cytometric analysis (reference value: 5.84%); assay type: functional
HCT-116 [32] = test: Cytotoxicity against human HCT116 cells assessed as reduction in cell viability at 3 to 6 uM by MTT assay; assay type: functional, cell-based; conditions: TDE = time-dependent effect
HCT-116 [33] = test: Induction of apoptosis in human HCT116 cells assessed as viable cells at 6 uM after 18 hrs by Annexin V/7-AAD staining based flow cytometric analysis (reference value: 91.42%); assay type: functional; conditions: HCT-116, 18 h, read-out: Activity
HCT-116 [34] = test: Cell cycle arrest in human HCT116 cells assessed as accumulation at S phase at 6 uM after 18 hrs by DAPI staining-based flow cytometric analysis (RVB = 25.49%); assay type: functional
HCT-116 [35] = test: Cell cycle arrest in human HCT116 cells assessed as accumulation at G2/M phase at 3 uM after 18 hrs by DAPI staining-based flow cytometric analysis (RVB = 17.25%); assay type: functional
HCT-116 [36] = test: Cell cycle arrest in human HCT116 cells assessed as accumulation at S phase at 3 uM after 18 hrs by DAPI staining-based flow cytometric analysis (RVB = 25.49%); assay type: functional
HCT-116 [37] = test: Cell cycle arrest in human HCT116 cells assessed as accumulation at G0/G1 phase at 6 uM after 18 hrs by DAPI staining-based flow cytometric analysis (RVB = 47.72%); assay type: functional
HCT-116 [38] = test: Antimigratory activity in human HCT116 cells after 96 hrs by wound healing assay; assay type: functional, cell-based

## CC[C@@]1(O)C(=O)OCc2c1cc1n(c2=O)Cc2cc3ccccc3nc2-1 [CAMPTOTHECIN]
HCT-116 [1]
  Activity: Active
[2]
  IC50: 0.77 µM
[3]
  selectivity ratio: 0.53 to 40.2
HEK293
  IC50: 1.61 µM
HCT-116 [4]
  Activity: 36.77%
HCT-116 [5]
  Activity: 5.73%
HCT-116 [6]
  Activity: 7.33%
HCT-116 [7]
  Activity: Tde
HCT-116 [8]
  Activity: 24.52%
HCT-116 [9]
  Activity: 10.06%
HCT-116 [10]
  Activity: Dose-dependent effect
HCT-116 [11]
  Activity: 5.08%
HCT-116 [12]
  Activity: 27.71%
MCF7
  IC50: 0.04 µM
RD
  IC50: 1.72 µM
HCT-116 [13]
  viability at 2 µM: 81.9%
A549
  IC50: 1.31 µM
[14]
  selectivity ratio: 0.53 to 40.2
[15]
  selectivity ratio: 0.53 to 40.2

## COc1cccc2c1C(=O)c1c(O)c3c(c(O)c1C2=O)C[C@@](O)(C(=O)CO)C[C@@H]3O[C@H]1C[C@H](N)[C@H](O)[C@H](C)O1 [DOXORUBICIN]
[2]
  IC50: 1.29 µM
HEp-2
  IC50: 1.78 µM
HEK293
  IC50: 0.02 µM
HCT-116 [7]
  Activity: Tde
HCT-116 [10]
  Activity: Dose-dependent effect
RD
  IC50: 1.27 µM

## C=C(C=O)[C@@H]1CC[C@]2(C(=O)OC)CC[C@]3(C)[C@H](CC[C@@H]4[C@@](C)(CC#N)[C@H](C(C)(C)C(=O)COC(C)=O)CC[C@]43C)[C@@H]12
HCT-116 [16]
  Activity: Active
HCT-116 [17]
  Activity: Active
HCT-116 [18]
  Activity: 15.07%
HCT-116 [19]
  Activity: Dose-dependent effect
[2]
  IC50: 3.61 µM
[3]
  selectivity ratio: 2.42 to 9.61
HCT-116 [20]
  Activity: 3.21%
HEp-2
  IC50: 12.2 µM
HCT-116 [21]
  Activity: 2.6%
HCT-116 [22]
  Activity: 15.27%
HCT-116 [23]
  Activity: 11.2%
HCT-116 [24]
  viability at 3 µM: 71.3%
HEK293
  IC50: 29.5 µM
HCT-116 [25]
  Activity: Dose-dependent effect
HCT-116 [26]
  Activity: 11.99%
HCT-116 [27]
  Activity: 14.06%
HCT-116 [28]
  Activity: 38.29%
HCT-116 [29]
  Activity: Dose-dependent effect
HCT-116 [30]
  Activity: 35.65%
HCT-116 [31]
  Activity: 27.07%
HCT-116 [10]
  Activity: Dose-dependent effect
  IC50: 3.07 µM
HCT-116 [32]
  Activity: Tde
HCT-116 [33]
  viability at 6 µM: 58.5%
HCT-116 [34]
  Activity: 24.03%
HCT-116 [35]
  Activity: 19.99%
HCT-116 [36]
  Activity: 28.16%
HCT-116 [37]
  Activity: 21.49%
MCF7
  IC50: 9.68 µM
RD
  IC50: 3.5 µM
HCT-116 [38]
  Activity: Dose-dependent effect
A549
  IC50: 10.2 µM
[14]
  selectivity ratio: 2.42 to 9.61
[15]
  selectivity ratio: 2.42 to 9.61

## C=C(C=O)[C@@H]1CC[C@]2(C(=O)OC)CC[C@]3(C)[C@H](CC[C@@H]4[C@@](C)(CC#N)[C@H](C(C)(C)C(=O)COC(=O)c5ccccc5OC(C)=O)CC[C@]43C)[C@@H]12
[2]
  IC50: 12.8 µM
[3]
  selectivity ratio: 1.08 to 22.5
HEp-2
  IC50: 36.2 µM
HEK293
  IC50: 108 µM
HCT-116 [10]
  IC50: 4.91 µM
MCF7
  IC50: > 100 µM
RD
  IC50: 4.81 µM
A549
  IC50: 22.8 µM
[14]
  selectivity ratio: 1.08 to 22.5
[15]
  selectivity ratio: 1.08 to 22.5
